According to patent US20260184710A1, “CASITAS B-LINEAGE LYMPHOMA PROTOONCOGENE B (CBL-B) DEGRADING COMPOUNDS AND ASSOCIATED METHODS OF USE” (Arvinas Operations, Inc., priority 2022, published 2026):

Key:
Cbl-b [1] = biological target: T1, Cbl-b (Homo sapiens, UniProt Q13191); experiment: Cbl-b Degradation Method B (Nano-Glo HiBiT lytic detection); type: cell-based; settings: Cbl-b-HiBit KI Jurkat Cells, incubated at least 6-24 hours; for Dmax / Cbl-b Degredation Method B Dmax (%): maximum degradation observed; for Dmax: read-out: Cbl-b Degredation Method B Dmax (%)
T1 construct: Cbl-b-HiBit KI Jurkat Cells were purchased from Promega; host or cells: Cbl-b-HiBiT knock-in Jurkat cells
T1 sequence (Q13191 whole entry): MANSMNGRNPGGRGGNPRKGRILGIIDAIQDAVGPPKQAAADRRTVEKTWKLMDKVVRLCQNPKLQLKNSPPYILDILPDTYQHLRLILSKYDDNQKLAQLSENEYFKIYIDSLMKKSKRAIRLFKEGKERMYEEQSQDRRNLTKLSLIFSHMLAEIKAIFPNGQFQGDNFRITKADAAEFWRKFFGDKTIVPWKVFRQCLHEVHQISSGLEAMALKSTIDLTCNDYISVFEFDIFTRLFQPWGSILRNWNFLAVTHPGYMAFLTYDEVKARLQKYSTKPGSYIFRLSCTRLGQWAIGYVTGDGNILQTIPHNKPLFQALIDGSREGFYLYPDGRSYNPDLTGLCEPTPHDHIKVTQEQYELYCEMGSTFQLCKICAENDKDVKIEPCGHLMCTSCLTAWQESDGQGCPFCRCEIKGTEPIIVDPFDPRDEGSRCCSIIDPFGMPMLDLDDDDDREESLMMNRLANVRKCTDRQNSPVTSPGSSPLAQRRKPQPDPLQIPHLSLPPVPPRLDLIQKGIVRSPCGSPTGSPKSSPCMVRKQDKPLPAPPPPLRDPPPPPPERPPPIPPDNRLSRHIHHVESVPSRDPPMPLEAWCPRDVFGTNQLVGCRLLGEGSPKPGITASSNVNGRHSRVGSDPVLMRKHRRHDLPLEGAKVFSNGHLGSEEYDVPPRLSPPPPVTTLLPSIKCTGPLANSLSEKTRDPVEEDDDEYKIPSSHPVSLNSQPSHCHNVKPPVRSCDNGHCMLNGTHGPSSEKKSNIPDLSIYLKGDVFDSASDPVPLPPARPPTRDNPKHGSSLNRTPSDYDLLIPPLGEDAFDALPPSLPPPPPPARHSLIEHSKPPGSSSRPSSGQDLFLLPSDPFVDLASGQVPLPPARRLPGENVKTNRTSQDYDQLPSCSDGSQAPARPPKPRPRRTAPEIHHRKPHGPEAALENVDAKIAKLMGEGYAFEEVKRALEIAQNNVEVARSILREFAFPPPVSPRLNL
Procedure, shortened: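 Cbl-b-HiBiT knock-in Jurkat cells (20,000/well) were treated after ~24 h plating with an 11-point 1:3 series for 6-24 h at 37° C. Remaining Cbl-b measured by Nano-Glo HiBiT lytic luminescence. DC50 and Dmax expressed as % of control.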

Cbl-b [2] = biological target: T1, Cbl-b; experiment: Cbl-b Degradation Method A (FACS, anti-Cbl-b antibody staining); type: cell-based; settings: Cbl-b-HiBit KI Jurkat Cells, incubated at least 20 hours; for Dmax: Jurkat, read-out: Cbl-b Degredation Method A Dmax (%); for Dmax / Cbl-b Degredation Method A Dmax (%): maximum degradation observed
Procedure, shortened: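 Cbl-b-HiBit KI Jurkat cells treated with compound for at least 20 h at 37 °C, then fixed, permeabilized and stained with anti-Cbl-b antibody plus anti-rabbit AF488 secondary. Cbl-b levels read by FACS; DC50 and Dmax (percent of control) derived.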

[3] = half maximal degradation, read-out: Cbl-b Degredation Method B IC50
[4] = half maximal degradation, read-out: Cbl-b Degredation Method A IC50

SMILES | DC50 (Cbl-b [1]; [3]) [µM] | DC50 (Cbl-b [2]; [4]) [µM] | Dmax (Cbl-b [1]) [%] | Dmax (Cbl-b [2]) [%] | Cbl-b Degredation Method B Dmax (%) (Cbl-b [1]) | Cbl-b Degredation Method A Dmax (%) (Cbl-b [2]) | IC50 (Cbl-b [1]; [3]) [µM] | IC50 (Cbl-b [2]; [4]) [µM]
Cn1cnnc1CC1(c2cccc(N3Cc4c(cc(N5CCC6(C5)CN(c5ccc7c(c5)C(=O)N(C5CCC(=O)NC5=O)C7=O)C6)cc4C(F)(F)F)C3=O)c2)COC1 (stereo not shown) [Example 127, 2-(2,6-dioxopiperidin-3-yl)-5-{6-[2-(3-{3-[(4-methyl-4H-1,2,4-triazol-3-yl)methyl]oxetan-3-yl}phenyl)-3-oxo-7-(trifluoromethyl)-2,3-dihydro-1H-isoindol-5-yl]-2,6-diazaspiro[3.4]octan-2-yl}-2,3-dihydro-1H-isoindole-1,3-dione] | > 0.5 | > 0.5 | – | – | – | – | – | –
Cn1cnnc1CC1(c2cccc(N3Cc4c(cc(N5CC(C6CN(c7ccc8c(c7)C(=O)N(C7CCC(=O)NC7=O)C8=O)C6)C5)cc4C(F)(F)F)C3=O)c2)COC1 (stereo not shown) [Example 121, 2-(2,6-dioxopiperidin-3-yl)-5-{1′-[2-(3-{3-[(4-methyl-4H-1,2,4-triazol-3-yl)methyl]oxetan-3-yl}phenyl)-3-oxo-7-(trifluoromethyl)-2,3-dihydro-1H-isoindol-5-yl]-[3,3′-biazetidin]-1-yl}-2,3-dihydro-1H-isoindole-1,3-dione] | > 0.5 | 0.005 to 0.05 | – | – | – | – | – | –
Cn1cnnc1CC1(c2cccc(N3Cc4c(cc(CN5CCCC(N6CC7(CCN(c8ccc9c(c8)C(=O)N(C8CCC(=O)NC8=O)C9=O)CC7)C6)C5)cc4C(F)(F)F)C3=O)c2)COC1 (stereo not shown) [Example 108, 2-(2,6-dioxopiperidin-3-yl)-5-[2-(1-{[2-(3-{3-[(4-methyl-4H-1,2,4-triazol-3-yl)methyl]oxetan-3-yl}phenyl)-3-oxo-7-(trifluoromethyl)-2,3-dihydro-1H-isoindol-5-yl]methyl}piperidin-3-yl)-2,7-diazaspiro[3.5]nonan-7-yl]-2,3-dihydro-1H-isoindole-1,3-dione] | 0.005 to 0.05 | 0.005 to 0.05 | 35 to 70 | < 35 | – | – | – | –
Cn1cnnc1CC1(c2cccc(N3Cc4c(cc(N5CC6(CC(CCOc7ccc8c(c7)C(=O)N(C7CCC(=O)NC7=O)C8=O)C6)C5)cc4C(F)(F)F)C3=O)c2)COC1 (stereo not shown) [Example 20, 2-(2,6-dioxo-3-piperidyl)-5-[2-[2-[2-[3-[3-[(4-methyl-1,2,4-triazol-3-yl)methyl]oxetan-3-yl]phenyl]-3-oxo-7-(trifluoromethyl)isoindolin-5-yl]-2-azaspiro[3.3]heptan-6-yl]ethoxy]isoindoline-1,3-dione] | > 0.5 | > 0.5 | – | – | – | – | – | –
Cn1cnnc1CC1(c2cccc(N3Cc4c(cc(CN5CCC(CC6CN(c7ccc8c(c7)C(=O)N(C7CCC(=O)NC7=O)C8=O)C6)CC5)cc4C(F)(F)F)C3=O)c2)COC1 (stereo not shown) [Example 79, 2-(2,6-dioxopiperidin-3-yl)-5-{3-[(1-{[2-(3-{3-[(4-methyl-4H-1,2,4-triazol-3-yl)methyl]oxetan-3-yl}phenyl)-3-oxo-7-(trifluoromethyl)-2,3-dihydro-1H-isoindol-5-yl]methyl}piperidin-4-yl)methyl]azetidin-1-yl}-2,3-dihydro-1H-isoindole-1,3-dione] | > 0.5 | > 0.5 | – | – | – | – | – | –
Cc1cc(N2CCC(C(C)(C)N3CCC4(CC3)CN(c3cc5c(c(C(F)(F)F)c3)CN(c3cccc([C@]6(Cc7nncn7C)C[C@@H](C#N)C6)c3)C5=O)C4)CC2)c(F)c2c1C(=O)N([C@@H]1CCC(=O)NC1=O)C2 [Example 278, (1r, 3r)-3-(3-{6-[7-(2-{1-[2-(2,6-dioxopiperidin-3-yl)-4-fluoro-7-methyl-1-oxo-2,3-dihydro-1H-isoindol-5-yl]piperidin-4-yl}propan-2-yl)-2,7-diazaspiro[3.5]nonan-2-yl]-1-oxo-4-(trifluoromethyl)-2,3-dihydro-1H-isoindol-2-yl}phenyl)-3-[(4-methyl-4H-1,2,4-triazol-3-yl)methyl]cyclobutane-1-carbonitrile] | – | – | – | – | C (C ≤ 35) | B (35 < B < 70) | 0.005 to 0.05 | 0.05 to 0.5

Next, values leading:

DC50 (Cbl-b [1]; [3]) [µM] | DC50 (Cbl-b [2]; [4]) [µM] | Dmax (Cbl-b [1]) [%] | Dmax (Cbl-b [2]) [%] | Cbl-b Degredation Method B Dmax (%) (Cbl-b [1]) | Cbl-b Degredation Method A Dmax (%) (Cbl-b [2]) | IC50 (Cbl-b [1]; [3]) [µM] | IC50 (Cbl-b [2]; [4]) [µM] | SMILES
< 0.005 | < 0.005 | 35 to 70 | 35 to 70 | – | – | – | – | Cn1cnnc1CC1(c2cccc(N3Cc4c(cc(N5CC6(CCN(CC7CCN(c8ccc9c(c8F)CN(C8CCC(=O)NC8=O)C9=O)CC7)CC6)C5)cc4C(F)(F)F)C3=O)c2)COC1 (stereo not shown) [Example 1, 3-{4-fluoro-5-[4-({2-[2-(3-{3-[(4-methyl-4H-1,2,4-triazol-3-yl)methyl]oxetan-3-yl}phenyl)-3-oxo-7-(trifluoromethyl)-2,3-dihydro-1H-isoindol-5-yl]-2,7-diazaspiro[3.5]nonan-7-yl}methyl)piperidin-1-yl]-1-oxo-2,3-dihydro-1H-isoindol-2-yl}piperidine-2,6-dione]
0.005 to 0.05 | 0.005 to 0.05 | – | 35 to 70 | C (C ≤ 35) | – | – | – | CC1c2nc(N3CCC(CN4CCN(CC5CCN(Cc6cc7c(c(C(F)(F)F)c6)CN(c6cccc([C@]8(Cc9nncn9C)C[C@@H](C#N)C8)c6)C7=O)C6(CC6)C5)CC4)CC3)ccc2C(=O)N1C1CCC(=O)NC1=O (stereo partly shown) [Example 310, (1r,3r)-3-(3-{6-[(7-{[4-({1-[6-(2,6-dioxopiperidin-3-yl)-7-methyl-5-oxo-5H,6H,7H-pyrrolo[3,4-b]pyridin-2-yl]piperidin-4-yl}methyl)piperazin-1-yl]methyl}-4-azaspiro[2.5]octan-4-yl)methyl]-1-oxo-4-(trifluoromethyl)-2,3-dihydro-1H-isoindol-2-yl}phenyl)-3-[(4-methyl-4H-1,2,4-triazol-3-yl)methyl]cyclobutane-1-carbonitrile]
< 0.005 | < 0.005 | 35 to 70 | 35 to 70 | – | – | – | – | CC1c2nc(N3CCC(O[C@H]4CC[C@H](CN5C[C@H]6C[C@@H]5CN6c5cc6c(c(C(F)(F)F)c5)CN(c5cccc([C@]7(Cc8nncn8C)C[C@@H](C#N)C7)c5)C6=O)CC4)CC3)ccc2C(=O)N1C1CCC(=O)NC1=O (stereo partly drawn) [Example 181, (1r,3r)-3-[(4-methyl-4H-1,2,4-triazol-3-yl)methyl]-3-(3-{1-oxo-6-[(1R,4R)-5-{[(1r,4r)-4-({1-[6-(2,6-dioxopiperidin-3-yl)-7-methyl-5-oxo-5H,6H,7H-pyrrolo[3,4-b]pyridin-2-yl]piperidin-4-yl}oxy)cyclohexyl]methyl}-2,5-diazabicyclo[2.2.1]heptan-2-yl]-4-(trifluoromethyl)-2,3-dihydro-1H-isoindol-2-yl}phenyl)cyclobutane-1-carbonitrile]
< 0.005 | 0.05 to 0.5 | – | > 70 | C (C ≤ 35) | – | – | – | Cn1cnnc1CC1(c2cccc(N3Cc4c(cc(CN5CCN(C[C@H]6CC[C@H](OC7CCN(c8ccc9c(c8)CC(=O)N9C8CCC(=O)NC8=O)CC7)CC6)CC5(C)C)cc4C(F)(F)F)C3=O)c2)CC(C#N)C1 (stereo partly shown) [Example 316, (1r**,3r**)-3-(3-{6-[(2,2-dimethyl-4-{[(1r*,4r*)-4-({1-[1-(2,6-dioxopiperidin-3-yl)-2-oxo-2,3-dihydro-1H-indol-5-yl]piperidin-4-yl}oxy)cyclohexyl]methyl}piperazin-1-yl)methyl]-1-oxo-4-(trifluoromethyl)-2,3-dihydro-1H-isoindol-2-yl}phenyl)-3-[(4-methyl-4H-1,2,4-triazol-3-yl)methyl]cyclobutane-1-carbonitrile]
< 0.005 | 0.005 to 0.05 | 35 to 70 | 35 to 70 | – | – | – | – | CC1CN(C[C@H]2CC[C@H](OC3CCN(c4ccc5c(n4)C(C)N(C4CCC(=O)NC4=O)C5=O)CC3)CC2)CCN1Cc1cc2c(c(C(F)(F)F)c1)CN(c1cccc([C@]3(Cc4nncn4C)C[C@@H](C#N)C3)c1)C2=O (stereo partly shown) [Example 208, (1r,3r)-3-(3-{6-[(2-methyl-4-{[(1r,4r)-4-({1-[6-(2,6-dioxopiperidin-3-yl)-7-methyl-5-oxo-5H,6H,7H-pyrrolo[3,4-b]pyridin-2-yl]piperidin-4-yl}oxy)cyclohexyl]methyl}piperazin-1-yl)methyl]-1-oxo-4-(trifluoromethyl)-2,3-dihydro-1H-isoindol-2-yl}phenyl)-3-[(4-methyl-4H-1,2,4-triazol-3-yl)methyl]cyclobutane-1-carbonitrile]
< 0.005 | < 0.005 | – | – | B (35 < B < 70) | B (35 < B < 70) | – | – | CC(c1cc2c(c(C(F)(F)F)c1)CN(c1cccc(C3(Cc4nncn4C)COC3)c1)C2=O)N1CCN(C[C@H]2CC[C@H](OC3CCN(c4ccc5c(c4F)CN(C4CCC(=O)NC4=O)C5=O)CC3)CC2)CC1 (single isomer, unassigned) [Example 9, 3-[4-fluoro-1-oxo-5-(4-{[(1r, 4r)-4-[(4-{1-[2-(3-{3-[(4-methyl-4H-1,2,4-triazol-3-yl)methyl]oxetan-3-yl}phenyl)-3-oxo-7-(trifluoromethyl)-2,3-dihydro-1H-isoindol-5-yl]ethyl}piperazin-1-yl)methyl]cyclohexyl]oxy}piperidin-1-yl)-2,3-dihydro-1H-isoindol-2-yl]piperidine-2,6-dione]
